Source: BigSolDB 2.1

Cc1ccc(N)c([N+](=O)[O-])c1
Settings | solubility (mole fraction)
in 1,2-dichloroethane, 278.15 K | 0.0289
in 1,2-dichloroethane, 280.65 K | 0.0326
in 1,2-dichloroethane, 283.15 K | 0.0355
in 1,2-dichloroethane, 285.65 K | 0.0397
in 1,2-dichloroethane, 288.15 K | 0.0432
in 1,2-dichloroethane, 290.65 K | 0.0468
in 1,2-dichloroethane, 293.15 K | 0.0506
in 1,2-dichloroethane, 295.65 K | 0.0548
in 1,2-dichloroethane, 298.15 K | 0.0594
in 1,2-dichloroethane, 300.65 K | 0.0642
in 1,2-dichloroethane, 303.15 K | 0.0692
in 1,2-dichloroethane, 305.65 K | 0.0747
in 1,2-dichloroethane, 308.15 K | 0.0806
in 1,2-dichloroethane, 310.65 K | 0.087
in 1,2-dichloroethane, 313.15 K | 0.0937
in 1,2-dichloroethane, 315.65 K | 0.101
in 1,2-dichloroethane, 318.15 K | 0.109
in 1,4-dioxane, 283.15 K | 0.0404
in 1,4-dioxane, 285.65 K | 0.0452
in 1,4-dioxane, 288.15 K | 0.0507
in 1,4-dioxane, 290.65 K | 0.0568
in 1,4-dioxane, 293.15 K | 0.0637
in 1,4-dioxane, 295.65 K | 0.0712
in 1,4-dioxane, 298.15 K | 0.0794
in 1,4-dioxane, 300.65 K | 0.0883
in 1,4-dioxane, 303.15 K | 0.0986
in 1,4-dioxane, 305.65 K | 0.11
in 1,4-dioxane, 308.15 K | 0.121
in 1,4-dioxane, 310.65 K | 0.134
in 1,4-dioxane, 313.15 K | 0.149
in 2-butanone, 278.15 K | 0.12
in 2-butanone, 280.65 K | 0.128
in 2-butanone, 283.15 K | 0.136
in 2-butanone, 285.65 K | 0.144
in 2-butanone, 288.15 K | 0.153
in 2-butanone, 290.65 K | 0.162
in 2-butanone, 293.15 K | 0.171
in 2-butanone, 295.65 K | 0.181
in 2-butanone, 298.15 K | 0.191
in 2-butanone, 300.65 K | 0.202
in 2-butanone, 303.15 K | 0.213
in 2-butanone, 305.65 K | 0.224
in 2-butanone, 308.15 K | 0.236
in 2-butanone, 310.65 K | 0.249
in 2-butanone, 313.15 K | 0.261
in DMF, 278.15 K | 0.0984
in DMF, 280.65 K | 0.105
in DMF, 283.15 K | 0.112
in DMF, 285.65 K | 0.122
in DMF, 288.15 K | 0.131
in DMF, 290.65 K | 0.14
in DMF, 293.15 K | 0.15
in DMF, 295.65 K | 0.161
in DMF, 298.15 K | 0.171
in DMF, 300.65 K | 0.182
in DMF, 303.15 K | 0.194
in DMF, 305.65 K | 0.206
in DMF, 308.15 K | 0.219
in DMF, 310.65 K | 0.232
in DMF, 313.15 K | 0.247
in acetonitrile, 278.15 K | 0.0274
in acetonitrile, 280.65 K | 0.0302
in acetonitrile, 283.15 K | 0.0334
in acetonitrile, 285.65 K | 0.0369
in acetonitrile, 288.15 K | 0.0406
in acetonitrile, 290.65 K | 0.0447
in acetonitrile, 293.15 K | 0.0493
in acetonitrile, 295.65 K | 0.0543
in acetonitrile, 298.15 K | 0.0602
in acetonitrile, 300.65 K | 0.0657
in acetonitrile, 303.15 K | 0.0721
in acetonitrile, 305.65 K | 0.0794
in acetonitrile, 308.15 K | 0.0872
in acetonitrile, 310.65 K | 0.0955
in acetonitrile, 313.15 K | 0.105
in chlorobenzene, 278.15 K | 0.016
in chlorobenzene, 280.65 K | 0.0174
in chlorobenzene, 283.15 K | 0.0194
in chlorobenzene, 285.65 K | 0.0216
in chlorobenzene, 288.15 K | 0.0239
in chlorobenzene, 290.65 K | 0.0262
in chlorobenzene, 293.15 K | 0.0288
in chlorobenzene, 295.65 K | 0.0316
in chlorobenzene, 298.15 K | 0.0349
in chlorobenzene, 300.65 K | 0.0383
in chlorobenzene, 303.15 K | 0.0421
in chlorobenzene, 305.65 K | 0.0463
in chlorobenzene, 308.15 K | 0.0507
in chlorobenzene, 310.65 K | 0.0556
in chlorobenzene, 313.15 K | 0.0611
in chlorobenzene, 315.65 K | 0.0671
in chlorobenzene, 318.15 K | 0.0738
in ethanol, 278.15 K | 0.00983
in ethanol, 280.65 K | 0.0107
in ethanol, 283.15 K | 0.0118
in ethanol, 285.65 K | 0.0128
in ethanol, 288.15 K | 0.0139
in ethanol, 290.65 K | 0.0152
in ethanol, 293.15 K | 0.0165
in ethanol, 295.65 K | 0.0179
in ethanol, 298.15 K | 0.0194
in ethanol, 300.65 K | 0.021
in ethanol, 303.15 K | 0.0228
in ethanol, 305.65 K | 0.0246
in ethanol, 308.15 K | 0.0266
in ethanol, 310.65 K | 0.0289
in ethanol, 313.15 K | 0.0312
in ethyl acetate, 278.15 K | 0.076
in ethyl acetate, 280.65 K | 0.0816
in ethyl acetate, 283.15 K | 0.087
in ethyl acetate, 285.65 K | 0.0933
in ethyl acetate, 288.15 K | 0.0996
in ethyl acetate, 290.65 K | 0.106
in ethyl acetate, 293.15 K | 0.113
in ethyl acetate, 295.65 K | 0.12
in ethyl acetate, 298.15 K | 0.128
in ethyl acetate, 300.65 K | 0.136
in ethyl acetate, 303.15 K | 0.144
in ethyl acetate, 305.65 K | 0.153
in ethyl acetate, 308.15 K | 0.162
in ethyl acetate, 310.65 K | 0.172
in ethyl acetate, 313.15 K | 0.182
in isopropanol, 278.15 K | 0.0102
in isopropanol, 280.65 K | 0.0112
in isopropanol, 283.15 K | 0.0122
in isopropanol, 285.65 K | 0.0134
in isopropanol, 288.15 K | 0.0146
in isopropanol, 290.65 K | 0.0161
in isopropanol, 293.15 K | 0.0176
in isopropanol, 295.65 K | 0.0192
in isopropanol, 298.15 K | 0.0209
in isopropanol, 300.65 K | 0.0227
in isopropanol, 303.15 K | 0.0248
in isopropanol, 305.65 K | 0.0268
in isopropanol, 308.15 K | 0.0293
in isopropanol, 310.65 K | 0.0317
in isopropanol, 313.15 K | 0.0346
in methanol, 278.15 K | 0.00863
in methanol, 280.65 K | 0.00933
in methanol, 283.15 K | 0.0104
in methanol, 285.65 K | 0.0112
in methanol, 288.15 K | 0.0121
in methanol, 290.65 K | 0.0133
in methanol, 293.15 K | 0.0144
in methanol, 295.65 K | 0.0156
in methanol, 298.15 K | 0.0169
in methanol, 300.65 K | 0.0182
in methanol, 303.15 K | 0.0198
in methanol, 305.65 K | 0.0213
in methanol, 308.15 K | 0.023
in methanol, 313.15 K | 0.0268
in n-butanol, 278.15 K | 0.0126
in n-butanol, 280.65 K | 0.0138
in n-butanol, 283.15 K | 0.0152
in n-butanol, 285.65 K | 0.0166
in n-butanol, 288.15 K | 0.018
in n-butanol, 290.65 K | 0.0197
in n-butanol, 293.15 K | 0.0214
in n-butanol, 295.65 K | 0.0232
in n-butanol, 298.15 K | 0.0253
in n-butanol, 300.65 K | 0.0273
in n-butanol, 303.15 K | 0.0297
in n-butanol, 305.65 K | 0.0321
in n-butanol, 308.15 K | 0.0348
in n-butanol, 310.65 K | 0.0376
in n-butanol, 313.15 K | 0.0406
in n-propanol, 278.15 K | 0.0111
in n-propanol, 280.65 K | 0.012
in n-propanol, 283.15 K | 0.0132
in n-propanol, 285.65 K | 0.0143
in n-propanol, 288.15 K | 0.0157
in n-propanol, 290.65 K | 0.017
in n-propanol, 293.15 K | 0.0185
in n-propanol, 295.65 K | 0.0202
in n-propanol, 298.15 K | 0.0218
in n-propanol, 300.65 K | 0.0237
in n-propanol, 303.15 K | 0.0257
in n-propanol, 305.65 K | 0.0278
in n-propanol, 310.65 K | 0.0326
in n-propanol, 313.15 K | 0.0352
in tetrachloromethane, 278.15 K | 0.00242
in tetrachloromethane, 280.65 K | 0.00265
in tetrachloromethane, 283.15 K | 0.00297
in tetrachloromethane, 285.65 K | 0.00333
in tetrachloromethane, 288.15 K | 0.00371
in tetrachloromethane, 290.65 K | 0.00406
in tetrachloromethane, 293.15 K | 0.00452
in tetrachloromethane, 295.65 K | 0.00497
in tetrachloromethane, 298.15 K | 0.0055
in tetrachloromethane, 300.65 K | 0.00602
in tetrachloromethane, 303.15 K | 0.00662
in tetrachloromethane, 305.65 K | 0.00721
in tetrachloromethane, 308.15 K | 0.00797
in tetrachloromethane, 310.65 K | 0.00876
in tetrachloromethane, 313.15 K | 0.00963
in tetrachloromethane, 315.65 K | 0.0105
in tetrachloromethane, 318.15 K | 0.0117
in toluene, 278.15 K | 0.0118
in toluene, 280.65 K | 0.0131
in toluene, 283.15 K | 0.0146
in toluene, 285.65 K | 0.016
in toluene, 288.15 K | 0.0176
in toluene, 290.65 K | 0.0194
in toluene, 293.15 K | 0.0215
in toluene, 295.65 K | 0.0236
in toluene, 298.15 K | 0.0259
in toluene, 300.65 K | 0.0284
in toluene, 303.15 K | 0.0312
in toluene, 305.65 K | 0.0343
in toluene, 308.15 K | 0.0375
in toluene, 310.65 K | 0.0411
in toluene, 313.15 K | 0.045
